Reference: PubChem BioAssay AID248 (DTP/NCI, 2004)
Several values for one entry are separate records, joined by “and”; a condition that tells them apart may be missing. Equal entries are not always repeated. Toxic doses and inconclusive results are not listed. No stated cut-off is given here; in the data, active means T/C of 150% or more; inactive means T/C below 125%.

Tested on: L1210 leukemia ip in BDF1 mice, survival T/C
Assay: NCI In Vivo Anticancer Drug Screen. Data for tumor model L1210 Leukemia (intraperitoneal) in B6D2F1 (BDF1) mice
Conditions: endpoint: mean survival time, higher = longer survival
Procedure, shortened: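 Read-out is survival time, reported as the treated-group measurement over the vehicle-control measurement.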

[1] = dose: 100.0 mg/kg/injection, schedule: Q01DX001 (ip), vehicle: saline
[2] = dose: 200.0 mg/kg/injection, schedule: Q01DX001 (ip), vehicle: saline
[3] = dose: 400.0 mg/kg/injection, schedule: Q01DX001 (ip), vehicle: saline
[4] = dose: 100.0 mg/kg/injection, schedule: Q01DX009 (ip), vehicle: Klucel (hydroxypropylcellulose) (HPC)
[5] = dose: 200.0 mg/kg/injection, schedule: Q01DX009 (ip), vehicle: Klucel (hydroxypropylcellulose) (HPC)
[6] = dose: 400.0 mg/kg/injection, schedule: Q01DX009 (ip), vehicle: Klucel (hydroxypropylcellulose) (HPC)
[7] = dose: 100.0 mg/kg/injection, schedule: Q04DX003 (ip), vehicle: saline with Tween-80
[8] = dose: 200.0 mg/kg/injection, schedule: Q04DX003 (ip), vehicle: saline with Tween-80
[9] = dose: 400.0 mg/kg/injection, schedule: Q04DX003 (ip), vehicle: saline with Tween-80
[10] = dose: 50.0 mg/kg/injection, schedule: Q01DX009 (ip), vehicle: saline

Measured: T/C

CS(=N)(=O)c1ccccc1 (configuration not stated)
inactive: dose: 100.0 mg/kg/injection, schedule: Q01DX009 (ip), vehicle: other 99 % of control | dose: 100.0 mg/kg/injection, schedule: Q04DX003 (ip), vehicle: saline 97 % of control | dose: 200.0 mg/kg/injection, schedule: Q01DX009 (ip), vehicle: other 95 % of control | dose: 200.0 mg/kg/injection, schedule: Q04DX003 (ip), vehicle: saline 100 % of control | dose: 400.0 mg/kg/injection, schedule: Q01DX009 (ip), vehicle: other 97 % of control | dose: 400.0 mg/kg/injection, schedule: Q04DX003 (ip), vehicle: saline 97 % of control

C=CCc1ccc(OC(C)=O)c(OC)c1
inactive: [1] 96 % of control | [2] 98 % of control | [3] 108 % of control

COc1ccc(NC(=O)Oc2ccc3ccccc3c2)c(OC)c1
inactive: dose: 100.0 mg/kg/injection, schedule: Q04DX002 (ip), vehicle: Klucel (hydroxypropylcellulose) (HPC) 97 % of control | dose: 200.0 mg/kg/injection, schedule: Q04DX002 (ip), vehicle: Klucel (hydroxypropylcellulose) (HPC) 111 % of control | dose: 400.0 mg/kg/injection, schedule: Q04DX002 (ip), vehicle: Klucel (hydroxypropylcellulose) (HPC) 104 % of control

O=C(NC1CCCCC1)c1ccc([N+](=O)[O-])cc1
inactive: dose: 100.0 mg/kg/injection, schedule: Q01DX001 (ip), vehicle: Klucel (hydroxypropylcellulose) (HPC) 104 % of control | dose: 200.0 mg/kg/injection, schedule: Q01DX001 (ip), vehicle: Klucel (hydroxypropylcellulose) (HPC) 101 % of control | dose: 400.0 mg/kg/injection, schedule: Q01DX001 (ip), vehicle: Klucel (hydroxypropylcellulose) (HPC) 101 % of control

CN(C)c1ccc(/C=C/c2nc3ccccc3o2)cc1
inactive: [4] 95 % of control | [5] 95 % of control | [6] 94 % of control

CCCCCC(/C=N/NC(=O)c1cccc2ccccc12)=C\c1ccccc1
inactive: [1] 94 % of control | [3] 97 % of control

Cc1ccc(P(=O)(O)O)c([N+](=O)[O-])c1
inactive: [1] 94 % of control | [2] 92 % of control

O=C(NC(=S)Nc1ccc(Cl)c(Cl)c1)c1ccc(Cl)cc1Cl
inactive: dose: 100.0 mg/kg/injection, schedule: Q01DX001 (ip), vehicle: saline with Tween-80 93 % of control | dose: 100.0 mg/kg/injection, schedule: Q01DX009 (ip), vehicle: saline with Tween-80 97 % of control and 98 % of control | dose: 100.0 mg/kg/injection, schedule: Q04DX002 (ip), vehicle: saline with Tween-80 98 % of control and 90 % of control | [7] 93 % of control | dose: 200.0 mg/kg/injection, schedule: Q01DX001 (ip), vehicle: saline with Tween-80 89 % of control | dose: 200.0 mg/kg/injection, schedule: Q01DX009 (ip), vehicle: saline with Tween-80 91 % of control and 92 % of control | dose: 200.0 mg/kg/injection, schedule: Q04DX002 (ip), vehicle: saline with Tween-80 101 % of control | [8] 93 % of control | dose: 400.0 mg/kg/injection, schedule: Q01DX009 (ip), vehicle: saline with Tween-80 87 % of control and 91 % of control | dose: 400.0 mg/kg/injection, schedule: Q04DX002 (ip), vehicle: saline with Tween-80 95 % of control and 90 % of control | [9] 93 % of control

CCOC(=O)c1ccc(NCC(C)(C)N(C)C)cc1
inactive: dose: 12.0 mg/kg/injection, schedule: Q01DX009 (ip), vehicle: saline 93 % of control | dose: 12.0 mg/kg/injection, schedule: Q04DX003 (ip), vehicle: saline 93 % of control | dose: 25.0 mg/kg/injection, schedule: Q01DX009 (ip), vehicle: saline 89 % of control | dose: 25.0 mg/kg/injection, schedule: Q04DX003 (ip), vehicle: saline 98 % of control | [10] 90 % of control | dose: 50.0 mg/kg/injection, schedule: Q04DX003 (ip), vehicle: saline 95 % of control

CCN(CC)CCOC(=O)c1cccc(N)c1
inactive: [10] 92 % of control | dose: 100.0 mg/kg/injection, schedule: Q01DX009 (ip), vehicle: saline 111 % of control | dose: 200.0 mg/kg/injection, schedule: Q01DX009 (ip), vehicle: saline 103 % of control

CN(C)c1nc(=[N+](C)C)ss1
inactive: dose: 15.0 mg/kg/injection, schedule: Q01DX015 (ip), vehicle: saline 102 % of control | dose: 30.0 mg/kg/injection, schedule: Q01DX015 (ip), vehicle: saline 94 % of control | dose: 60.0 mg/kg/injection, schedule: Q01DX015 (ip), vehicle: saline 100 % of control | [7] 100 % of control | dose: 120.0 mg/kg/injection, schedule: Q01DX015 (ip), vehicle: saline 105 % of control | [8] 96 % of control

O=C(Nc1ccc(S(=O)(=O)F)cc1)/C(=C/c1cccc([N+](=O)[O-])c1)c1ccccc1
inactive: [4] 106 % of control | [5] 94 % of control | [6] 100 % of control

CC(O)C(N)C(=O)O (configuration not stated)
inactive: dose: 12.5 mg/kg/injection, schedule: Q04DX002 (ip), vehicle: saline 103 % of control and 97 % of control | dose: 18.75 mg/kg/injection, schedule: Q04DX003 (ip), vehicle: saline 101 % of control | dose: 25.0 mg/kg/injection, schedule: Q04DX002 (ip), vehicle: saline 107 % of control | dose: 37.5 mg/kg/injection, schedule: Q04DX003 (ip), vehicle: saline 98 % of control | dose: 50.0 mg/kg/injection, schedule: Q04DX002 (ip), vehicle: saline 107 % of control | dose: 75.0 mg/kg/injection, schedule: Q04DX003 (ip), vehicle: saline 108 % of control and 114 % of control | dose: 100.0 mg/kg/injection, schedule: Q01DX001 (ip), vehicle: carboxymethylcellulose (CMC) 87 % of control | dose: 100.0 mg/kg/injection, schedule: Q04DX002 (ip), vehicle: saline 107 % of control | dose: 150.0 mg/kg/injection, schedule: Q04DX003 (ip), vehicle: saline 108 % of control | dose: 200.0 mg/kg/injection, schedule: Q01DX001 (ip), vehicle: carboxymethylcellulose (CMC) 91 % of control | [5] 91 % of control | dose: 200.0 mg/kg/injection, schedule: Q04DX002 (ip), vehicle: saline 93 % of control | dose: 300.0 mg/kg/injection, schedule: Q04DX003 (ip), vehicle: saline 94 % of control | dose: 400.0 mg/kg/injection, schedule: Q01DX001 (ip), vehicle: carboxymethylcellulose (CMC) 89 % of control | dose: 400.0 mg/kg/injection, schedule: Q04DX002 (ip), vehicle: saline 107 % of control

ClCCN(CCCl)c1ccc(C=Nc2ccc(-c3csc(-c4ccccc4)n3)c(Cl)c2)cc1
inactive: dose: 100.0 mg/kg/injection, schedule: Q01DX001 (sc), vehicle: carboxymethylcellulose (CMC) 94 % of control | dose: 200.0 mg/kg/injection, schedule: Q01DX001 (sc), vehicle: carboxymethylcellulose (CMC) 97 % of control | dose: 400.0 mg/kg/injection, schedule: Q01DX001 (sc), vehicle: carboxymethylcellulose (CMC) 103 % of control

Nc1cccc2scnc12
inactive: [7] 90 % of control | [8] 95 % of control | [9] 90 % of control

CN(C)C(=S)SSC(=S)N(C)C
inactive: dose: 50.0 mg/kg/injection, schedule: Q01DX009 (ip), vehicle: Klucel (hydroxypropylcellulose) (HPC) 92 % of control | [4] 99 % of control | dose: 100.0 mg/kg/injection, schedule: Q04DX003 (ip), vehicle: other 95 % of control | dose: 200.0 mg/kg/injection, schedule: Q04DX003 (ip), vehicle: other 103 % of control | dose: 400.0 mg/kg/injection, schedule: Q04DX003 (ip), vehicle: other 96 % of control
